# Assay results as given in patent US20100041089A1, “IMPROVED METHOD FOR DETECTING CHEMICAL […]” (priority 2006, published 2010).
# Test system: yeast genes (expressed mRNA)
# Assay: DNA chip measurement of expressed mRNA of yeast genes after culture with a toxic chemical substance
# Format: cell-based, Saccharomyces cerevisiae S288C
# Method: Yeast (Saccharomyces cerevisiae S288C (a SUC2mal mel gap2 CUP1)) were cultured at 25° C. on YPD medium (yeast extract 1%, polypeptone 2%, glucose 2%). One of toxic chemical substances was added to the cell at logarithmic growth phase, and the cell was further cultured for two hours. Cell was cultured without any chemical substance in the same condition, and was used as a control. Concentrations of the chemical substances were defined to inhibit the growth of the yeast but not lead to death.
# After the completion of cultivation, the culture was centrifuged to collect the cells. To the cells, sodium acetate buffer (50 mM sodium acetate, 10 mM EDTA, 1% SDS) was added, and the mixture was shaken at 65° C. for five minutes, followed by returning to room temperature, and obtaining the supernatant, which procedure was repeated two times. To the supernatant, ½ amount of a solution of phenol/chloroform (1:1) was added, and the mixture was centrifuged to give a supernatant, an equal amount of chloroform was added, and the mixture was centrifuged to give a supernatant. To the supernatant, an equal amount of isopropanol containing 0.3 M sodium acetate was added, and the mixture was allowed to stand at room temperature for 30 minutes, after which the mixture was centrifuged to give sediment of the whole RNAs. Seventy % ethanol was added to the sediment, and the mixture was again centrifuged to give sediment, which was then dried and dissolved in water. mRNA was isolated from the whole RNAs as followings. In view of the fact that a poly A chain is attached to the 3′ terminus of mRNA, a polynucleotide having a poly T structure which was immobilized on the surface of latex beads was used to trap the mRNA, and then the mRNA was washed and eluted with spine column (Oligotex-dT30<Super>mRNA Purification Kit, Takara). Reverse transcription of the mRNA was conducted with a reverse transcriptase (Super Script II Reverse Transcriptase; catalogue No. 18064-014, GibcoBRL) using fluorescence-labeled nucleotides to give cDNAs that were introduced with Cy3-dUTP or Cy5-dUTP during the reverse transcription.
# The labeled cDNAs were dissolved in TE buffer (10 mM Tris-HCl/1 mM EDTA, pH 8.0), and the solution was dropped on the DNA chip containing the whole genes of yeast (DNA Chip Research Inc. Japan) so that the cDNAs were hybridized on the DNA chip at 65° C. for over 12 hours. The fluoresces intensity of the DNA chip was read with a scanner, and the ratio relative to the fluorescence intensity resulting from the absence of chemical substance was estimated as the following, which is shown in Tables 1 to 9.
# In the Tables, “Intensity” indicated in the rightmost column is a value of the level of expressed mRNA of each gene in control cells as divided by the average level of the expressions of the whole genes. A gene of which mRNA level is lower in control, and is higher in cases of addition of chemical substance, is especially useful in the detection of toxic substances.
# Here, when a ratio of an amount of mRNA expressed in the presence of the chemical substance to an amount of mRNA expressed in the absence of the chemical substance is two or more, then it is considered significant.
smiles,measurement,setting,value
"S=C([S-])NCCNC(=S)[S-].[Zn+2] [(11), Zinc N,N′-ethylenebis(dithiocarbamate)]",The level of expressed mRNA in the presence of chemical substance/The level of expressed mRNA in the absence of chemical substance,"yeast gene YGL037C, cultured two hours with substance",3.9
same,The level of expressed mRNA in the presence of chemical substance/The level of expressed mRNA in the absence of chemical substance,"yeast gene YGL047W, cultured two hours with substance",1.9
same,The level of expressed mRNA in the presence of chemical substance/The level of expressed mRNA in the absence of chemical substance,"yeast gene YGL053W, cultured two hours with substance",1.3
same,The level of expressed mRNA in the presence of chemical substance/The level of expressed mRNA in the absence of chemical substance,"yeast gene YGL121C, cultured two hours with substance",6.1
same,The level of expressed mRNA in the presence of chemical substance/The level of expressed mRNA in the absence of chemical substance,"yeast gene YGL136C, cultured two hours with substance",1.4
same,The level of expressed mRNA in the presence of chemical substance/The level of expressed mRNA in the absence of chemical substance,"yeast gene YGR101W, cultured two hours with substance",2.0
same,The level of expressed mRNA in the presence of chemical substance/The level of expressed mRNA in the absence of chemical substance,"yeast gene YGR110W, cultured two hours with substance",0.5
same,The level of expressed mRNA in the presence of chemical substance/The level of expressed mRNA in the absence of chemical substance,"yeast gene YGR130C, cultured two hours with substance",0.8
same,The level of expressed mRNA in the presence of chemical substance/The level of expressed mRNA in the absence of chemical substance,"yeast gene YGR146C, cultured two hours with substance",0.9
same,The level of expressed mRNA in the presence of chemical substance/The level of expressed mRNA in the absence of chemical substance,"yeast gene YGR154C, cultured two hours with substance",1.5
same,The level of expressed mRNA in the presence of chemical substance/The level of expressed mRNA in the absence of chemical substance,"yeast gene YGR221C, cultured two hours with substance",0.5
same,The level of expressed mRNA in the presence of chemical substance/The level of expressed mRNA in the absence of chemical substance,"yeast gene YHR029C, cultured two hours with substance",3.8
same,The level of expressed mRNA in the presence of chemical substance/The level of expressed mRNA in the absence of chemical substance,"yeast gene YHR138C, cultured two hours with substance",1.6
same,The level of expressed mRNA in the presence of chemical substance/The level of expressed mRNA in the absence of chemical substance,"yeast gene YHR199C, cultured two hours with substance",1.9
same,The level of expressed mRNA in the presence of chemical substance/The level of expressed mRNA in the absence of chemical substance,"yeast gene YHR209W, cultured two hours with substance",3.3
same,The level of expressed mRNA in the presence of chemical substance/The level of expressed mRNA in the absence of chemical substance,"yeast gene YIL023C, cultured two hours with substance",1.1
same,The level of expressed mRNA in the presence of chemical substance/The level of expressed mRNA in the absence of chemical substance,"yeast gene YIL024C, cultured two hours with substance",0.6
same,The level of expressed mRNA in the presence of chemical substance/The level of expressed mRNA in the absence of chemical substance,"yeast gene YIL041W, cultured two hours with substance",1.4
same,The level of expressed mRNA in the presence of chemical substance/The level of expressed mRNA in the absence of chemical substance,"yeast gene YIL087C, cultured two hours with substance",2.8
same,The level of expressed mRNA in the presence of chemical substance/The level of expressed mRNA in the absence of chemical substance,"yeast gene YIL117C, cultured two hours with substance",1.8
same,The level of expressed mRNA in the presence of chemical substance/The level of expressed mRNA in the absence of chemical substance,"yeast gene YIL136W, mitochondria-located protein gene",4.8
same,The level of expressed mRNA in the presence of chemical substance/The level of expressed mRNA in the absence of chemical substance,yeast gene YIR024C,6.3
same,The level of expressed mRNA in the presence of chemical substance/The level of expressed mRNA in the absence of chemical substance,"yeast gene YJL020C, cultured two hours with substance",0.6
same,The level of expressed mRNA in the presence of chemical substance/The level of expressed mRNA in the absence of chemical substance,"yeast gene YJL057C, cultured two hours with substance",2.0
same,The level of expressed mRNA in the presence of chemical substance/The level of expressed mRNA in the absence of chemical substance,"yeast gene YJL066C, cultured two hours with substance",0.8
same,The level of expressed mRNA in the presence of chemical substance/The level of expressed mRNA in the absence of chemical substance,"yeast gene YJL082W, cultured two hours with substance",1.0
same,The level of expressed mRNA in the presence of chemical substance/The level of expressed mRNA in the absence of chemical substance,"yeast gene YJL108C, cultured two hours with substance",1.0
same,The level of expressed mRNA in the presence of chemical substance/The level of expressed mRNA in the absence of chemical substance,"yeast gene YJL144W, cultured two hours with substance",3.0
same,The level of expressed mRNA in the presence of chemical substance/The level of expressed mRNA in the absence of chemical substance,"yeast gene YJL149W, cultured two hours with substance",1.5
same,The level of expressed mRNA in the presence of chemical substance/The level of expressed mRNA in the absence of chemical substance,"yeast gene YJL151C, cultured two hours with substance",1.0
same,The level of expressed mRNA in the presence of chemical substance/The level of expressed mRNA in the absence of chemical substance,"yeast gene YJL152W, cultured two hours with substance",1.0
same,The level of expressed mRNA in the presence of chemical substance/The level of expressed mRNA in the absence of chemical substance,"yeast gene YJL161W, cultured two hours with substance",3.7
same,The level of expressed mRNA in the presence of chemical substance/The level of expressed mRNA in the absence of chemical substance,"yeast gene YJL171C, cultured two hours with substance",2.2
same,The level of expressed mRNA in the presence of chemical substance/The level of expressed mRNA in the absence of chemical substance,"yeast gene YJL186W, cultured two hours with substance",0.6
same,The level of expressed mRNA in the presence of chemical substance/The level of expressed mRNA in the absence of chemical substance,"yeast gene YJR008W, cultured two hours with substance",1.4
same,The level of expressed mRNA in the presence of chemical substance/The level of expressed mRNA in the absence of chemical substance,"yeast gene YJR054W, cultured two hours with substance",0.7
same,The level of expressed mRNA in the presence of chemical substance/The level of expressed mRNA in the absence of chemical substance,"yeast gene YJR085C, cultured two hours with substance",2.9
same,The level of expressed mRNA in the presence of chemical substance/The level of expressed mRNA in the absence of chemical substance,"yeast gene YKL034W, cultured two hours with substance",1.2
same,The level of expressed mRNA in the presence of chemical substance/The level of expressed mRNA in the absence of chemical substance,yeast gene YKL070W,10.4
same,The level of expressed mRNA in the presence of chemical substance/The level of expressed mRNA in the absence of chemical substance,"yeast gene YKL071W, cultured two hours with substance",40.3
